System: Carrageenin-Induced Paw Edema
Experiment: Carrageenin-induced paw edema in rats (inhibitory activity)
Format: in vivo, male rats of Donryu strain
Conditions: Rattus norvegicus, po, 3 h, read-out: Inhibitory effect (carrageenin-induced paw edema)
Protocol: (1) Carrageenin-induced paw edema
This inhibitory activity was tested according to the method of C. A. Winter et al. [Proceedings of the Society for Experimental Biology and Medicine, vol.
After one hour, 0.1 ml of a 1% carrageenin was injected into the subplantar region of the left hind paw. Three hours after carrageenin injection, the paw volume was measured plethysmographically and the percent swelling was determined from the volume before injection and the inhibitory percentage was calculated according to the following equation: [formula]

Row | Compound | inhibition in vivo at 10 mg/kg [%]
1 | COc1ccc2c(c1)c(CC(=O)O)c(C)n2C(=O)c1ccc(Cl)cc1 [IM, indomethacin, reference compound] | > 40

Same assay, conditions: Rattus norvegicus; 10 mg/kg oral, 1 h before carrageenin; paw volume 3 h after; read-out: Inhibitory effect (carrageenin-induced paw edema)

Row | Compound | inhibition in vivo at 10 mg/kg [%]
2 | CS(=O)(=O)Nc1cc2occ(NC=O)c(=O)c2cc1Sc1ccccc1 [Compound 88] | 30 to 40
3 | CSc1coc2cc(NS(C)(=O)=O)c(Oc3ccccc3)cc2c1=O [Compound 4, 7-methylsulfonylamino-3-methylthio-6-phenoxy-4H-1-benzopyran-4-one] | 20 to 30
4 | CS(=O)(=O)Nc1cc2occ(NC=O)c(=O)c2cc1Oc1ccccc1 [Compound 99] | > 40
5 | Cc1oc2cc(NS(C)(=O)=O)c(Oc3ccccc3)cc2c(=O)c1C(N)=O [Compound 61] | 15 to 20
6 | CNc1coc2cc(NS(C)(=O)=O)c(Oc3ccccc3)cc2c1=O [Compound 101] | 30 to 40
7 | CS(=O)(=O)Nc1cc2occc(=O)c2cc1Oc1ccc(F)cc1F [Compound 94, 6-(2,4-difluorophenoxy)-7-methylsulfonylamino-4H-1-benzopyran-4-one] | 30 to 40
8 | CS(=O)(=O)Nc1cc2occc(=O)c2cc1Oc1ccccc1 [Compound 1, 7-methylsulfonylamino-6-phenoxy4H-1-benzopyran-4-one] | 30 to 40
9 | CC(=O)N(c1cc2occc(=O)c2cc1Oc1ccccc1)S(C)(=O)=O [Compound 96] | 30 to 40
10 | CN(C=O)c1coc2cc(NS(C)(=O)=O)c(Oc3ccccc3)cc2c1=O [Compound 100] | > 40
11 | CS(=O)(=O)Nc1cc2occc(=O)c2cc1Nc1ccccc1 [Compound 12] | 30 to 40
12 | CS(=O)(=O)Nc1cc2occ(NC=O)c(=O)c2cc1Oc1ccc(F)cc1F [Compound 39] | > 40
13 | CS(=O)(=O)Nc1cc2occ(NC=O)c(=O)c2cc1Oc1ccccc1F [Compound 34] | > 40
14 | O=CNc1coc2cc(NS(=O)(=O)CCl)c(Oc3ccccc3)cc2c1=O [Compound 40] | > 40
15 | CS(=O)(=O)Nc1cc2occ(C(N)=O)c(=O)c2cc1Oc1ccccc1 [Compound 122] | 20 to 30
16 | Cc1cc(=O)c2cc(Oc3ccccc3)c(NS(C)(=O)=O)cc2o1 [Compound 9] | 20 to 30
17 | Cc1ccccc1Oc1cc2c(=O)c(NC=O)coc2cc1NS(C)(=O)=O [Compound 46] | > 40

System: Adjuvant Arthritis
Experiment: Adjuvant-induced arthritis in rats (inhibitory activity)
Format: in vivo, male rats of Westar-Lewis strain
Conditions: 1 mg/kg oral once a day, seven continuous days
Protocol: (2) Adjuvant-induced arthritis
This inhibitory activity was tested according to the method of E. M. Glenn [American Journal of Veterinary Research, vol. 27, p. 339 (1966)].
To male rats of Westar-Lewis strain (body weight: 190-230 g, 5 rats per group) was intradermally injected 0.1 ml of a suspension of heat-killed Mycobacterium tuberculosis in liquid paraffin at a concentration of 6 mg/ml as the adjuvant into the root of tail. Eighteen days after the adjuvant injection, the rats were classified based on the volume of both hind paws, and then a suspension of the test compound in 0.5% (w/v) aqueous carboxymethylcellulose solution was orally administered to the classified rats in a proportion of 1 ml/100 g of body weight once a day for seven continuous days (see Table 3) or four continuous days (see Table 4). On the day following the last administration, the volume of both hind paws was measured, and in the same manner as in (1) above, the inhibitory effect was determined. Incidentally, the result is shown in Tables 3 and 4 in terms of the inhibitory effect indicated below based on inhibition (x%).

Row | Compound | Inhibitory effect (adjuvant arthritis, Table 3)
18 | COc1ccc2c(c1)c(CC(=O)O)c(C)n2C(=O)c1ccc(Cl)cc1 [IM, indomethacin, reference compound] | +++ (30 ≤ × < 40)

Same assay, conditions: 10 mg/kg oral once a day, seven continuous days

Row | Compound | Inhibitory effect (adjuvant arthritis, Table 3)
19 | CS(=O)(=O)Nc1cc2occc(=O)c2cc1Oc1ccc(F)cc1F [Compound 94, 6-(2,4-difluorophenoxy)-7-methylsulfonylamino-4H-1-benzopyran-4-one] | ++++ (× ≥ 40)
20 | CS(=O)(=O)Nc1cc2occc(=O)c2cc1Oc1ccccc1 [Compound 1, 7-methylsulfonylamino-6-phenoxy4H-1-benzopyran-4-one] | +++ (30 ≤ × < 40)
21 | CC(=O)N(c1cc2occc(=O)c2cc1Oc1ccccc1)S(C)(=O)=O [Compound 96] | ++++ (× ≥ 40)
22 | Cc1cc(=O)c2cc(Oc3ccccc3)c(NS(C)(=O)=O)cc2o1 [Compound 9] | ++++ (× ≥ 40)

Same assay, conditions: Rattus norvegicus, po, read-out: Inhibitory effect (adjuvant arthritis, Table 4)

Row | Compound | inhibition in vivo at 3 mg/kg [%]
23 | COc1ccc2c(c1)c(CC(=O)O)c(C)n2C(=O)c1ccc(Cl)cc1 [IM, indomethacin, reference compound] | 30 to 40

Same assay, conditions: Rattus norvegicus; 3 mg/kg oral once a day, four continuous days; read-out: Inhibitory effect (adjuvant arthritis, Table 4)

Row | Compound | inhibition in vivo at 3 mg/kg [%]
24 | CSc1coc2cc(NS(C)(=O)=O)c(Oc3ccccc3)cc2c1=O [Compound 4, 7-methylsulfonylamino-3-methylthio-6-phenoxy-4H-1-benzopyran-4-one] | 20 to 30
25 | CS(=O)(=O)Nc1cc2occ(NC=O)c(=O)c2cc1Oc1ccccc1 [Compound 99] | 20 to 30
26 | CS(=O)(=O)Nc1cc2occc(=O)c2cc1Nc1ccccc1 [Compound 12] | 30 to 40
27 | CS(=O)(=O)Nc1cc2occ(NC=O)c(=O)c2cc1Oc1ccc(F)cc1F [Compound 39] | 20 to 30
28 | CS(=O)(=O)Nc1cc2occ(NC=O)c(=O)c2cc1Oc1ccccc1F [Compound 34] | 30 to 40
29 | O=CNc1coc2cc(NS(=O)(=O)CCl)c(Oc3ccccc3)cc2c1=O [Compound 40] | 20 to 30
30 | CS(=O)(=O)Nc1cc2occ(C(N)=O)c(=O)c2cc1Oc1ccccc1 [Compound 122] | 20 to 30
31 | Cc1ccccc1Oc1cc2c(=O)c(NC=O)coc2cc1NS(C)(=O)=O [Compound 46] | 20 to 30

Same assay, conditions: Rattus norvegicus; 10 mg/kg oral once a day, four continuous days; read-out: Inhibitory effect (adjuvant arthritis, Table 4)

Row | Compound | inhibition in vivo at 10 mg/kg [%]
32 | CS(=O)(=O)Nc1cc2occ(NC=O)c(=O)c2cc1Sc1ccccc1 [Compound 88] | 20 to 30
33 | Cc1oc2cc(NS(C)(=O)=O)c(Oc3ccccc3)cc2c(=O)c1C(N)=O [Compound 61] | 30 to 40
34 | CNc1coc2cc(NS(C)(=O)=O)c(Oc3ccccc3)cc2c1=O [Compound 101] | 20 to 30
35 | CN(C=O)c1coc2cc(NS(C)(=O)=O)c(Oc3ccccc3)cc2c1=O [Compound 100] | 20 to 30

System: not listed separately
Experiment: Ulcerogenic effect in rats
Set-up: species or system male rats of Wister strain
Conditions: rat, in vivo, po
Protocol: To male rats of Wister strain (body weight: 180-230 g, 7 to 8 rats per group) which had been fasted for 24 hours with free access to water was orally administered a test compound suspended in 0.5% (w/v) aqueous carboxymethylcellulose solution in a proportion of 1 ml/100 g of body weight. The rats were allowed to stand under abstinence from food and water for 24 hours, and thereafter, sacrificed by dislocation of cervical vertebrae, after which the stomach was removed and fixed in 1% (v/v) formaline solution for 30 minutes. This stomach was split along the greater curvature and the length (mm) of the erosion and ulcer formed on the gastric mucosa was measured by a stereomicroscope, and the total sum of the lengths (lmm) was determined, from which ulcerogenic index was assessed based on the following arbitrary scale:
Subsequently, UD50 (mg/kg) which is the dose of the test compound which induces ulcerogenic index 5 was determined on each test compound.
*Rats were allowed to stand for 5 hours under abstinence from food and […]

Row | Compound | TD50 at 24 h [mg/kg] | TD50 at 5 h [mg/kg]
36 | CS(=O)(=O)Nc1cc2occ(NC=O)c(=O)c2cc1Oc1ccccc1 [Compound 99] | > 500 | 
37 | CS(=O)(=O)Nc1cc2occc(=O)c2cc1Oc1ccc(F)cc1F [Compound 94, 6-(2,4-difluorophenoxy)-7-methylsulfonylamino-4H-1-benzopyran-4-one] |  | > 300
38 | CS(=O)(=O)Nc1cc2occc(=O)c2cc1Oc1ccccc1 [Compound 1, 7-methylsulfonylamino-6-phenoxy4H-1-benzopyran-4-one] |  | > 300
39 | CS(=O)(=O)Nc1cc2occ(NC=O)c(=O)c2cc1Oc1ccc(F)cc1F [Compound 39] | > 500 | 
40 | CS(=O)(=O)Nc1cc2occ(NC=O)c(=O)c2cc1Oc1ccccc1F [Compound 34] | > 500 | 
41 | Cc1ccccc1Oc1cc2c(=O)c(NC=O)coc2cc1NS(C)(=O)=O [Compound 46] | > 500 | 

Same assay, conditions: rat, in vivo; oral; 24 hours under abstinence from food and water; read-out: UD50 (dose which induces ulcerogenic index 5)

Row | Compound | TD50 at 24 h [mg/kg]
42 | COc1ccc2c(c1)c(CC(=O)O)c(C)n2C(=O)c1ccc(Cl)cc1 [IM, indomethacin, reference compound] | 4.3

System: not listed separately
Experiment: Oral acute toxicity in mice
Format: in vivo, ICR strain male mice
Conditions: mouse, in vivo; oral, mice
Protocol: (§1) ICR strain male mice (body weight: 20-25 g, […], 3 mice per group) were tested for oral acute toxicity. A test compound suspended in 0.5% (w/v) aqueous carboxymethylcellulose solution was orally administered to the mice in a proportion of 0.2 ml/10 g of body weight. After the administration, general symptom was observed over one week.

Row | Compound | LD50 at 168 h [mg/kg]
43 | COc1ccc2c(c1)c(CC(=O)O)c(C)n2C(=O)c1ccc(Cl)cc1 [IM, indomethacin, reference compound] | 25

System: mice
Experiment: Oral acute toxicity in mice
Format: in vivo, ICR strain male mice
Conditions: mouse, in vivo, po, 500 mg/kg
Protocol: as §1

Row | Compound | behavioural changes
44 | CS(=O)(=O)Nc1cc2occ(NC=O)c(=O)c2cc1Oc1ccccc1 [Compound 99] | no behavioural changes were observed
45 | CS(=O)(=O)Nc1cc2occc(=O)c2cc1Oc1ccc(F)cc1F [Compound 94, 6-(2,4-difluorophenoxy)-7-methylsulfonylamino-4H-1-benzopyran-4-one] | no behavioural changes were observed
46 | CS(=O)(=O)Nc1cc2occc(=O)c2cc1Oc1ccccc1 [Compound 1, 7-methylsulfonylamino-6-phenoxy4H-1-benzopyran-4-one] | no behavioural changes were observed
47 | CS(=O)(=O)Nc1cc2occ(NC=O)c(=O)c2cc1Oc1ccc(F)cc1F [Compound 39] | no behavioural changes were observed
48 | CS(=O)(=O)Nc1cc2occ(NC=O)c(=O)c2cc1Oc1ccccc1F [Compound 34] | no behavioural changes were observed
49 | Cc1ccccc1Oc1cc2c(=O)c(NC=O)coc2cc1NS(C)(=O)=O [Compound 46] | no behavioural changes were observed

Same assay, conditions: oral, dose of 500 mg/kg, observed over one week

Row | Compound | death cases
50 | CS(=O)(=O)Nc1cc2occ(NC=O)c(=O)c2cc1Oc1ccccc1 [Compound 99] | no death case was found
51 | CS(=O)(=O)Nc1cc2occc(=O)c2cc1Oc1ccc(F)cc1F [Compound 94, 6-(2,4-difluorophenoxy)-7-methylsulfonylamino-4H-1-benzopyran-4-one] | no death case was found
52 | CS(=O)(=O)Nc1cc2occc(=O)c2cc1Oc1ccccc1 [Compound 1, 7-methylsulfonylamino-6-phenoxy4H-1-benzopyran-4-one] | no death case was found
53 | CS(=O)(=O)Nc1cc2occ(NC=O)c(=O)c2cc1Oc1ccc(F)cc1F [Compound 39] | no death case was found
54 | CS(=O)(=O)Nc1cc2occ(NC=O)c(=O)c2cc1Oc1ccccc1F [Compound 34] | no death case was found
55 | Cc1ccccc1Oc1cc2c(=O)c(NC=O)coc2cc1NS(C)(=O)=O [Compound 46] | no death case was found

Reference: patent publication US4954518A, “4H-1-benzopyran-4-one derivative or its salt, process for producing the same and pharmaceutical composition comprising the same as active ingredient” (Toyama Chemical Company, Ltd., priority 1987, dated 1990)
